In experiment [1] the test system is T98G (glioblastoma multiforme) cells. Briefly: MTT cell viability assay (72 h), fresh or aged solutions, T98G. The experiment is classed as cell-based, human. As to conditions: 72 h incubation. Here is the method:
(§1) For viability experiments, the cells were seeded in 96-well plates at an initial density of 1.0 × 10^3 (T98G) or 3.0 × 10^3 (SVG p12) viable cells per well in 100 μL medium and left to attach overnight.
(§2) For all cell assays, freshly prepared stock solutions of the V(V) complexes (10 mM in DMSO) were used. […] The same concentration of DMSO was used in the control experiments. Stock solutions of Na3VO4 (10 mM in MilliQ H2O) and cisplatin (1.0 mM in phosphate-buffered saline) were prepared on the day of the experiments. […] The treatment complexes were applied in a series of nine two-fold dilutions, starting from 100 μM V, plus the vehicle control. Each treatment was composed of six replicate wells with cells and two background wells without cells but containing the same compounds. […] (1.0 mg/mL in complete medium), and incubation was continued for 4–6 h. The medium was then removed, the blue formazan crystals were dissolved in 0.10 mL per well of DMSO, and the absorbance at 600 nm was measured with a Victor V3 plate reader.
For orientation: Tetrazolium assays rely on reduction of a dye to a coloured formazan, in cell work by metabolically active cells.

The test system of experiment [2] is SVG p12 (immortalized non-cancer brain astroglia) cells. Briefly: MTT cell viability assay (72 h), fresh or aged solutions, SVG p12. As to conditions: for IC50: 72 h incubation. The experiment is classed as cell-based, human. Here is the method: as §1, §2
Setting [3] is: Homo sapiens, T98G, pre-incubated with medium for 24 h at 310 K before addition to cells (B), read-out: IC50 (T98G), aged solutions (B).

Each structure is given as a SMILES string. Like-named read-outs stand apart in the source and are kept apart here.

In general, IC50 refers to the point on the concentration scale where inhibition reaches its midpoint.

Regarding `OCCNCC/N=C/c1ccccc1O` [Compound H2SHED, N-(salicylideneaminato)-N′-(2-hydroxyethyl)-1,2-ethanediamine], the IC50 in experiment [1] (setting [3]) is more than 100 µM.

Turning to `CC(C)c1cc(O)c(O)c(C(C)C)c1` [DIPCATH2, 3,5-di-iso-propyl-catechol], in experiment [1] (setting [3]), the IC50 worked out at 54 ± 8 µM.

Regarding `CC(C)(C)c1cc(O)c(O)c(C(C)(C)C)c1` [DTBH2, 3,5-di-tert-butylcatechol], the IC50 in experiment [1] (setting [3]) is 26 ± 3 µM.

Turning to `[Na+].[Na+].[Na+].[O]=[V]([O-])([O-])[O-]` [Na3VO4], the 50% inhibitory concentration (IC50) in experiment [1] (pre-incubated with medium for 24 h at 310 K before addition to cells (B), read-out: IC50 (T98G), aged solutions (B)) came to 40 ± 3 µM; in experiment [2] (pre-incubated with medium for 24 h at 310 K before addition to cells (B), read-out: IC50 (SVG p12), aged solutions (B)), 48 ± 4 µM. The “Effect of subtoxic V(V) concentrations on cell viability” value in experiment [2] (SVG p12, 72 h assay, aged in the medium for 24 h, not observed in T98G) is recorded as “increase in cell viability”.

As to `CC(C)c1cc(C(C)C)c(C(C)C)c(O)c1O` [TIPCATH2, 3,4,6-tri-iso-propyl catechol], the IC50 in experiment [1] (setting [3]) was 54 ± 7 µM.

On to `N.N.[Cl][Pt][Cl]` [cisplatin], for which the IC50 in experiment [1] (fresh solutions added to cells within 1 min (A), read-out: IC50 (T98G), fresh solutions (A)) is 31 ± 1 µM; in experiment [2] (fresh solutions added to cells within 1 min (A), read-out: IC50 (SVG p12), fresh solutions (A)) it was 6.1 ± 0.4 µM.

Values taken from article PMC11817060, “Optimizing Therapeutics for Intratumoral Cancer Treatments: Antiproliferative Vanadium Complexes in Glioblastoma” (International Journal of Molecular Sciences, 2025).
